Laboratory results reported in US8357501B2, “Tissue protective erythropoietin receptor (NEPOR) and methods of use” (Molecular Health GmbH, priority 2007, dated 2013).
Where two headings read alike, the source gives them in different places. [5mC] = 5-methylcytosine

Columns and labels:
[1] = tested on: EphB4 expression in the transiently transfected 293T cell line; assay: EphB4 knockdown by antisense ODN in transiently transfected cells; assay type: cell-based; conditions: cytosine at the CpG site methylated, compared with AS-10; data not shown
HeyA8-MDR cells = assay: EPH-B4 siRNA effect on tumor promoting effect of EPO in nude mice (FIG. 17); assay type: in vivo; conditions: HeyA8 MDR i.p.
Method: Female nude mice were injected i.p. with 1×10^6 HeyA8-MDR cells. Day eight following injection the cells were treated with control siRNA-DOPC, EPH-B4 siRNA-DOPC, EPO, or in EPO+ control or EPH-B4 siRNA-DOPC (10 per group). (50 U EPO given 3× week, 5 μg siRNA 2× week). Mice were sacrificed on day 25 and tumor weights were measured. Statistics were done using students T-test. B) Distribution of tumor weight per group.
In these experiments we sought to determine the response to erythropoietin (EPO) treatment in a panel of ovarian cancer cell lines. […] It was then necessary to determine protein expression of these receptors in the panel. […] We then categorized these expression changes particularly with regard to the EPOR and EPH-B4 to then analyze the response to EPO treatment. We analyzed their response to chemotherapy in conjunction with EPO. […] It was then necessary to analyze the activation of signaling pathways known to be activated by these receptors in response to EPO treatment. Three cell lines were starved for two hours to isolate their response to EPO. […] We then sought to determine a EPO dose that optimized its tumor promoting effect in vivo. Female nude mice were injected i.p. with HeyA8 MDR (positive for both EPOR and EPH-B4). […] Treatment continued until tumors became evident, the mice were then sacrificed and the tumor weight was determined. […]

[2] = 351 patients receiving radiotherapy; 3 times per week, from 10 to 14 days before and through radiation therapy; placebo 15%; cited from earlier work
tissue injury = conditions: wide variety of in vivo and in vitro models, cited from earlier work
erythropoiesis = conditions: cited from earlier work

AS-10M: antisense ODN AS-10 with the cytosine at the CpG site methylated (ATGGAGGCCTCGCTCAGAAA; DNA, [5mC] at 11, backbone and methylation of C not given here; listed as Homo sapiens)
EphB4 knockdown efficiency [1]: without any loss

EPH-B4 siRNA: siRNA specific to EPH-B4, sense 5′CAGCCAAUAGCCACUCUAA3′ (SEQ ID NO: 266), antisense 5′UUAGAGUGGCUAUUGGCUG3′ (SEQ ID NO: 267) (listed as RNA, chemistry not given here; listed as Homo sapiens)
EPO induced tumor growth (HeyA8-MDR cells; siRNA 5 μg 2× week in conjunction with EPO 50 U 3× week): completely abrogated | tumor growth (HeyA8-MDR cells; siRNA alone, 5 μg siRNA 2× week from day eight): decrease

epoetin beta: EPO in the form of epoetin beta, NeoRecormon from Roche
patients with increased haemoglobin levels [2]: 82%

CEpo: carbamylated Epo, does not stimulate erythropoiesis (Leist et al.)
tissue injury / neuroprotection (tissue injury): prevents | tissue injury / neuroprotection (tissue injury; listed as carbamylated EPO): neuroprotective | stimulation of erythropoiesis / haematopoiesis (erythropoiesis): does not stimulate | stimulation of erythropoiesis / haematopoiesis (erythropoiesis; listed as carbamylated EPO): fail to induce haematopoiesis
